Measured values reported in US7439024B2, “Methods and kits for diagnosing or monitoring autoimmune and chronic inflammatory diseases” (The United States of America as represented by the …, priority 2005, dated 2008).

What was measured:
CD70 promoter = test: Bisulfite sequencing of the CD70 promoter in drug-treated CD4+ T cells; type: cell-based, human; conditions: for methylation of the 10 CG pairs in the CD70 promoter region between −515 and −423: CD4+ T cells stimulated with anti-CD3 and anti-CD28, vs stimulated untreated controls, FIGS. 13, 14
Text: (§1) In other studies, T cells were isolated by negative selection using magnetic beads and instructions provided by the manufacturer (Pan T cell Isolation Kit, Miltenyi), and the CD4+ or CD8+ subset was similarly isolated by magnetic cell sorting. […] Purified human CD4+ T cells were first stimulated with plate bound anti-CD3 and soluble anti-CD28.
Bisulfite sequencing. The putative CD70 promoter was identified using the published CD70 cDNA sequence and Tfsitescan software. Deoxycytosine (dC) and deoxymethylcytosine (d^mC) bases in the gene promoter and 5′ flanking sequences were identified by bisulfite treatment of purified DNA followed by nested PCR amplification of 3 sequential fragments to span the entire region. The primers were designed to avoid CG pairs and to account for the conversion of dC to dU by the bisulfite. EcoRI sites were added to the forward primers, and XbaI to the reverse, to facilitate cloning. The amplified fragments were then cloned into PBS+, and 5 clones sequenced for each fragment. The primers used were: […]
The effect of lupus and DNA methylation inhibitors on a regulatory element in the CD70 promoter was examined. DNA was isolated from the CD4+ T cells of 7 healthy individuals or 6 lupus patients, bisulfite treated, the region from −466-−515, containing 6 CG pairs was amplified by PCR, and 5 fragments sequenced from each individual. The average methylation status of the 6 CG pairs for healthy versus lupus individuals is shown (FIG. 8, NI and Lupus, respectively). CD4+ T cells from 5 individuals were also stimulated with PHA, treated with the irreversible DNA methyltransferase inhibitor 5-azacytidine (5-azaC), and the methylation status of the 6 CG pairs similarly analyzed from the 25 fragments sequenced (FIG. 8, 5-azaC). […] Results are presented as the mean±SEM of the average methylation of the 6 CG pairs, measured from the 10-35 determinations/group.
The effects of the DNA methylation inhibitors on the methylation status of this region were then compared. […] Again, 5 cloned fragments were sequenced from each control, for a total of 35 determinations per CG pair. […] FIG. 14 compares the average methylation for the 10 CG pairs (−515 to −423) in the T cells treated with DNA methylation inhibitors relative to stimulated, untreated controls.

CD70 mRNA = test: Real time RT-PCR of CD70 transcripts relative to β-actin in drug-treated T cells; type: cell-based, human; conditions: for CD70 transcripts relative to β-actin, normalized to the untreated control: CD4+ T cells stimulated with anti-CD3 + anti-CD28, 5 μm 5-azaC, 50 μm Pca, 20 μm Hyd, 40 μm U0126 or 25 μm PD98059 for 3 days, FIG. 9; for expression of CD70 mRNA relative to that of beta-actin vs untreated cells: T cells, real time RT-PCR, FIG. 1B
Protocol: Cells and cell culture. Peripheral blood mononuclear cells (PBMCs) were isolated by density-gradient centrifugation. T cells were then isolated by E-rosetting (See, e.g., Golbus et at., Clin Immunol Immunopathol 46, 129 (1988)). […] Where indicated, the cells were cultured in RPMI 1640/10% fetal calf serum (FCS) supplemented with interleukin-2 (IL-2) (See, e.g., Richardson et at., Clin Immunol Immunopathol 55, 368 (1990)), in round-bottomed 5-ml culture tubes (FALCON). Cells were stimulated with 1 μg/ml of PHA (REMEL) for 16 hours, then cultured in 24-well plates at a density of 1×10^6 for an additional 72 hours in the presence of 2-deoxy-5-azaC or 5-azaC (SIGMA-ALDRICH), procainamide (SIGMA-ALDRICH), hydralazine (SIGMA-ALDRICH), or the MEK inhibitors U0126 (PROMEGA) or PD98059 (PROMEGA […]). In other studies, PHA-stimulated PBMCs were cultured in RPMI 1640/10% FCS and treated with indomethacin, chloroquine, hydrocortisone, and 6-mercaptopurine (6-MP) (all from SIGMA-ALDRICH). TT48E, a cloned, CD4+, tetanus toxoid-reactive human T cell line, was cultured as previously described (Comacchia et al., J Immunol 140, 2197 (1988); Richardson et al., Arthritis Rheum 35, 647 (1992)).
as §1

autologous B cells = test: T cell and B cell costimulation assay, IgG ELISA of supernatants; type: cell-based, human; conditions: P<0.05; for IgG produced by B cells cultured with drug-treated cloned T cells vs untreated T cells: TT48E cloned CD4+ T cell line treated 3 days, autologous B cells, without PWM, FIG. 4; for IgG secreted by B cells cultured with drug-treated T cells vs same numbers of untreated T cells: unfractionated PHA-stimulated T cells treated 3 days, cultured with PWM and autologous B cells 8 days, FIG. 3
Protocol: T cell and B cell costimulation assays. E-rosette-purified T cells were stimulated for 16 hours with PHA and then treated with the indicated chemicals for an additional 72 hours as described above. Where indicated, T cell subsets were isolated by negative selection using magnetic beads (Miltenyi). B cells (1-4×10^5) enriched by negative selection using magnetic beads (Miltenyi) and assessed to be 70-85% pure using PE-conjugated anti-human CD21 (PHARMINGEN), were added to washed, drug-treated autologous T cells, at T cell to B cell ratios of 4:1, 2:1, 1:1, 1:2, and 1:4. Where indicated, 0.625 μg/ml of PWM (ALDRICH) was added. The cells were cultured in RPMI 1640/10% FBS/penicillin/streptomycin for 8 days in 96-well roundbottomed plates (Costar) containing a 200 μl total volume (performed in duplicate). Cells were supplemented with 50 μl of medium on day 4. Where indicated, 1 μg/ml of anti-CD70 monoclonal antibody (HNE51) (DAKO) was added to the cultures. TT48E cells were similarly stimulated with PHA (1 μg/ml) for 18 hours, treated with the indicated drugs for 3 days, then similarly cultured with autologous B cells for 8 days. Where indicated, the TT48E cells were pretreated with 1 μg/ml of anti-CD70 for 30 minutes at […], then washed and added to the B cells, according to protocols described by others (See, e.g., Kobata et at., Proc Natl Acad Sci U S A 92, 11249 (1995)).
IgG enzyme-linked immunosorbent assays (ELISAs). IgG was measured in the supernatants of the T cell-B cell cultures (See, e.g., Richardson et al., Clin Immunol Immunopathol 55, 368 (1990)). Briefly, 96-well flatbottomed polystyrene plates (Costar) were coated with 1 μg/ml of goat anti-human IgG (Southern Biotech) and washed. Unreacted combining sites were sealed with 3% bovine serum albumin (BSA) in phosphate buffered saline (PBS) by incubation at 4° C. for 16 hours. Pooled supernatants from duplicate wells were diluted 1:5 in PBS/1% BSA, and 50 μl was added to the wells. Serial dilutions of purified human IgG (Sigma) were used for quantitation. Following incubation and washing, goat anti-human IgG conjugated with horseradish peroxidase (Southern Biotech) was added, and cells were incubated for 2 hours at room temperature. The wells were washed 3 times with PBS/0.1% Tween 20, and color was developed using Sigma Fast tablets. The plates were read at 405 nm using a SpectraMax spectrophotometer (Molecular Devices). All determinations were performed in quadruplicate.
Since CD70 participates in T cell-dependent B cell stimulation (See e.g., Kobata et al., Proc Natl Acad Sci USA 92, 11249 (1995)), the effects of DNA methylation inhibitors on CD70-dependent B cell help were examined. […] Eight days later, total IgG in the supernatants was measured by ELISA. […]

CD70 [1] = test: Flow cytometric analysis of CD70 expression on T cells treated with DNA methylation inhibitors; type: cell-based, human; conditions: for increase of CD70 expression on T cell clone TT48E: 3 days, 6 serial experiments; for increase of CD70 MFI on CD4+ T cells: CD4+ T cell subset; for CD70 expression on PHA-stimulated T cells, treated vs untreated: polyclonal T cells, 1 μM 5-azaC 3 days, procainamide increasing dosage, 25 μM PD98059 and dose response, 40 μM U0126 and dose response, FIG. 2; for CD70 expression on CD4+ T cells: summary statement in Example 8
CD70 [2] = conditions: PHA-stimulated purified T cells, 3 days after treatment, oligonucleotide arrays, 2 independent experiments, mean±SEM
CD70 [3] = test: CD70 expression on CD4+ cells of PBMCs cultured with medications commonly used to treat lupus (flow cytometry); type: cell-based, human; conditions: PBMCs with or without PHA, 24 hours, graded concentrations 1-100 μM

Row | Structure (SMILES) | methylation of the 10 CG pairs in the CD70 promoter region between −515 and −423 (CD70 promoter) | CD70 transcripts relative to β-actin, normalized to the untreated control (CD70 mRNA) | CD70 expression on PHA-stimulated T cells, treated vs untreated (CD70 [1]) | CD70 expression on CD4+ T cells (CD70 [1]) | CD70 expression on stimulated or unstimulated CD4+ cells (CD70 [3]) | other results
1 | Nc1ncn([C@@H]2O[C@H](CO)[C@@H](O)[C@H]2O)c(=O)n1 [5-azaC, 5-azacytidine] | hypomethylated compared to controls | increase CD70 transcripts | small increase | increased CD70 expression | – | expression of CD70 mRNA relative to that of beta-actin vs untreated cells (CD70 mRNA): increased the expression of CD70 mRNA; IgG produced by B cells cultured with drug-treated cloned T cells vs untreated T cells (autologous B cells): greater amounts of IgG; IgG secreted by B cells cultured with drug-treated T cells vs same numbers of untreated T cells (autologous B cells): greater amounts of IgG; increase of CD70 expression on T cell clone TT48E (CD70 [1]; 1 μM, P=0.048): 1.69±0.33 fold; increase of CD70 MFI on CD4+ T cells (CD70 [1]; 1 μM, P=0.025, n=5): 1.53±0.45 fold; concentration producing the greatest effect on CD70 expression (CD70 [1]; range of 5-azaC concentrations, P=0.001 overall, n=5 experiments, FIG. 2B): 1 µM; CD70 expression increase in treated cells relative to untreated controls (CD70 [2]): > 2 fold
2 | C[C@]12CCC(=O)C=C1CC[C@@H]1[C@@H]2[C@@H](O)C[C@@]2(C)[C@H]1CC[C@]2(O)C(=O)CO [hydrocortisone] | – | – | – | – | No increase in CD70 expression | –
3 | CCN(CC)CCCC(C)Nc1ccnc2cc(Cl)ccc12 (stereo not drawn) [chloroquine] | – | – | – | – | No increase in CD70 expression | –
4 | COc1cccc(-c2cc(=O)c3ccccc3o2)c1N [PD98059] | appears to demethylate | increase CD70 transcripts | increase in CD70 expression with treatment | increased CD70 expression | – | increase of CD70 MFI on CD4+ T cells (CD70 [1]; 25 μM, P=0.032, n=3): 1.63±0.43 fold
5 | Nc1ncn([C@H]2C[C@H](O)[C@@H](CO)O2)c(=O)n1 [2-deoxy-5-azaC] | – | – | – | – | – | CD70 expression increase in treated cells relative to untreated controls (CD70 [2]): 2.6±0.6 fold
6 | N#CC(=C(/N)Sc1ccccc1N)/C(C#N)=C(\N)Sc1ccccc1N [U0126] | appears to demethylate | increase CD70 transcripts | increase in CD70 expression with treatment | increased CD70 expression | – | expression of CD70 mRNA relative to that of beta-actin vs untreated cells (CD70 mRNA): increased the expression of CD70 mRNA; IgG produced by B cells cultured with drug-treated cloned T cells vs untreated T cells (autologous B cells): greater amounts of IgG; IgG secreted by B cells cultured with drug-treated T cells vs same numbers of untreated T cells (autologous B cells): greater amounts of IgG; increase of CD70 expression on T cell clone TT48E (CD70 [1]; 40 μM, P=0.004): 1.87±0.37 fold; increase of CD70 MFI on CD4+ T cells (CD70 [1]; 40 μM, P=0.039, n=4): 3.20±0.44 fold; increase of CD70 MFI in T cells treated with U0126 (FIG. 2I) (CD70 [1]; P=0.085, stated in the passage on the smaller CD8+ increase): 2.83±0.95 fold
7 | Sc1ncnc2nc[nH]c12 [6-MP, 6-mercaptopurine] | – | – | – | – | No increase in CD70 expression | –
8 | COc1ccc2c(c1)c(CC(=O)O)c(C)n2C(=O)c1ccc(Cl)cc1 [indomethacin] | – | – | – | – | No increase in CD70 expression | –
9 | CCN(CC)CCNC(=O)c1ccc(N)cc1 [procainamide] | appears to demethylate | increase CD70 transcripts | increase in the ratio of the mean fluorescence intensity (MFI) of CD70 expression | increased CD70 expression | – | methylation status of the CD70 promoter region from −466-−515 containing 6 CG pairs (CD70 promoter; PHA-stimulated CD4+ T cells, FIG. 8): demethylate this region
